Patent US20210106582A1, “COMPOUNDS AND PHARMACEUTICAL COMPOSITIONS THEREOF FOR USE IN THE TREATMENT OF FIBROTIC DISEASES” (Galapagos NV, priority 2017, published 2021)
Where “and” joins values, the source holds several entries; their conditions need not be identical. Equal values may be shown once.

System: C57BL/6N male mice, bleomycin induced pulmonary fibrosis
Assay: Therapeutic bleomycin induced pulmonary fibrosis 21-day mice model
Assay type: in vivo
Details: individual animals, BLM, CpdA 30 mg/kg BID PO D7-D21
Experimental: The aim of the study is to test the efficacy of a test compound at three different doses in a 21-day model of bleomycin induced pulmonary fibrosis in mice.
11 week-old C57BL/6N male mice from Charles River (Italy) are maintained on 12 h light/dark cycle at 22° C. with ad libidum access to tap water and food.
On day 0, all mice in groups 2-4 receive a 1.5 U/kg oropharyngeal administration of bleomycin (BLM) to induce pulmonary fibrosis Animals in group 1 are not administered bleomycin, but instead receive a single dose of saline via the oropharyngeal route, and are considered sham control mice.
Animals are examined clinically twice daily. List of clinical signs and parameters are indicated in humane endpoints table. Animals are weighed daily starting from DO.
On day 21, lung functionality is determined. After deep anesthesia induced by an intraperitoneal injection (10 mL/kg) of a solution of xylazine (5 mg/kg) and ketamine (75 mg/kg), the trachea is exposed through midline incision and a cannula is inserted. Mice are ventilated with a tidal volume of 10 mL/kg at a frequency of 150 breaths/minute. FlexiVent (SCIREQ®) perturbations are performed three times. Deep Inflation and Pressure-Volume loops (PV loops) with stepwise increasing pressure are performed to measure the Inspiratory Capacity and stepwise pressure-driven perturbation (PVs-P). PV loops between 0 and 30 cm H2O are generated to obtain Total Lung Capacity (A). A snapshot perturbation maneuver is imposed, which is a threefold sinusoidal wave of in- and expiration controlled by the ventilator, resulting in resistance (Rrs), compliance (Crs), and elastance (Ers) of the whole respiratory system (airways, lung and chest wall). A value for each group is calculated with average FlexiVent-validated measurements recorded in each individual subject.
Then, two hours after the last dose of test substance and nintedanib, mice are sacrificed by anesthetic overdose. The lungs are excised and weighed individually. The lungs are then placed into marked bottles containing 10% buffered formalin for further histopathological evaluation.
Body weight data and lung weight data are processed using MS Excel. Statistical analysis and graphical presentation are performed using GraphPad Prism software (version 5.04).
For histopathological evaluation, whole lungs are embedded in paraffin and stained with Mallory's trichrome.
Pulmonary histological changes are assessed using Matsuse's modification of Ashcroft score (Ashcroft et al., 1988; Matsuse et al., 1999). Statistical analysis and graphical presentation is performed using GraphPad Prism software (version 5.04). Mann-Whitney test is employed.
Differences between groups are considered statistically significant when p<0.05.

For `O=c1nc(OC[C@@H]2COCCO2)cc2n1CCc1cc(C#CC3CC3)ccc1-2` [Compound A, 9-Cyclopropylethynyl-2-((S)-1-[1,4]dioxan-2-ylmethoxy)-6,7-dihydro-pyrimido[6,1-a]isoquinolin-4-one], the “Compliance of the Respiratory System” value (Figure 14 panel B) was 0.034 mL/cmH2O and 0.030 mL/cmH2O and 0.035 mL/cmH2O and 0.037 mL/cmH2O and 0.036 mL/cmH2O and 0.033 mL/cmH2O and 0.041 mL/cmH2O (2×) and 0.031 mL/cmH2O and 0.038 mL/cmH2O and 0.046 mL/cmH2O and 0.042 mL/cmH2O, the “Elastance of the Respiratory System” value (Figure 14 panel C) was 29.43 cmH2O/mL and 33.18 cmH2O/mL and 28.94 cmH2O/mL and 26.99 cmH2O/mL and 27.50 cmH2O/mL and 30.18 cmH2O/mL and 24.40 cmH2O/mL and 31.90 cmH2O/mL and 26.35 cmH2O/mL and 21.92 cmH2O/mL and 23.92 cmH2O/mL and 24.49 cmH2O/mL and the “Ashcroft Score” value (Matsuse's modification, Figure 13) was 2.4 and 3.0 and 2.5 and 3.3 and 3.4 (2×) and 2.9 (2×) and 2.7 (2×) and 3.6 and 2.3 and 2.0 and 2.1. For the same molecule, the “Inspiratory Capacity” value (day 21 FlexiVent, Figure 14 panel A) was 0.58 mL (2×) and 0.66 mL and 0.65 mL and 0.59 mL and 0.75 mL and 0.69 mL (2×) and 0.84 mL and 0.73 mL and 0.71 mL.
